Data from the NIST ThermoML archive (doi:10.1021/je034290l).

Columns and labels:
[1] = Liquid; for mass density: 318.15 K, 101.33 kPa
[2] = refractive index (Na D-line) (dimensionless); details: 318.15 K; 101.33 kPa; Liquid; Standard Abbe refractometry
[3] = xn = mol fraction of the nth substance listed; details: 101.32 kPa, Liquid
[4] = excess molar enthalpy (molar enthalpy of mixing); xn = mol fraction of the nth substance listed; details: 101.32 kPa, Liquid, Calvet calorimetry

CC(C)(C)O [2-methylpropan-2-ol]
Details | mass density [kg/m3] | refractive index
[1] | 759.87 | –
[2] | – | 1.3741

CCCC(=O)OC [methyl butanoate]
Details | mass density [kg/m3] | refractive index
[1] | 870.24 | –
[2] | – | 1.3753

[1]
Details | vapor or sublimation pressure [kPa]
347.53 K | 40.12
348.26 K | 41.24
349.21 K | 42.76
349.79 K | 43.84
350.81 K | 45.25
351.98 K | 46.74
352.34 K | 47.92
353.21 K | 49.41
353.72 K | 50.85
354.96 K | 51.83
355.26 K | 53.5
356.06 K | 54.82
356.79 K | 55.89
357.44 K | 57.38
358.24 K | 58.61
358.9 K | 60.02
359.7 K | 61.42
360.43 K | 62.63
360.93 K | 64.13
362.03 K | 66.54
362.31 K | 68.03
363.2 K | 69.42
363.49 K | 70.61
363.78 K | 71.18
365.02 K | 73.5
365.38 K | 74.77
365.97 K | 75.89
366.41 K | 77.39
366.84 K | 78.61
367.57 K | 80.14
368.01 K | 81.39
368.59 K | 82.57
369.25 K | 83.91
369.95 K | 85.71
370.19 K | 86.58
370.49 K | 87.94
371.07 K | 88.35
371.72 K | 90.8
371.79 K | 92.1
372.31 K | 93.26
372.89 K | 94.59
373.47 K | 95.92
373.84 K | 97.46
374.57 K | 99.14
374.77 K | 100.04
375.24 K | 101.32
375.37 K | 102.58
375.81 K | 104.06
376.02 K | 105.47
376.39 K | 106.5
376.97 K | 107.92
377.55 K | 109.23
378.14 K | 110.58
378.36 K | 112.15
378.79 K | 113.36
378.94 K | 114.67
379.3 K | 115.84
379.67 K | 117.27
380.03 K | 118.72
380.69 K | 120.15
381.2 K | 121.36
381.56 K | 122.59
381.64 K | 124.01
381.85 K | 125.24
382.22 K | 126.48
382.73 K | 127.91
382.95 K | 129.4
383.6 K | 130.75
383.68 K | 132.15
384.33 K | 133.49
384.77 K | 134.91
384.84 K | 135.92
385.06 K | 137.27
385.35 K | 138.45
385.72 K | 140.01
386.06 K | 141.27
386.74 K | 142.63
386.84 K | 144.13
387.1 K | 145.37
387.47 K | 146.49
387.61 K | 147.69
387.98 K | 149.24
388.41 K | 150.57
388.92 K | 151.94
389.02 K | 153.4
389.36 K | 154.57
390.02 K | 156.49
390.16 K | 157.37
390.36 K | 158.7
390.53 K | 160.05
390.89 K | 161.18
391.07 K | 162.57
391.55 K | 163.94
391.98 K | 165.7
392.2 K | 166.69

CCCC(=O)OC [methyl butanoate] + CC(C)(C)O
Details | excess molar enthalpy [kcal/mol] | excess molar volume [m3/mol]
[3], 303.15 K, x1 = 0.0628 | – | 1.6e-07
[3], 303.15 K, x1 = 0.0928 | – | 2.36e-07
[3], 303.15 K, x1 = 0.1566 | – | 3.68e-07
[3], 303.15 K, x1 = 0.194 | – | 4.3e-07
[3], 303.15 K, x1 = 0.2507 | – | 5.07e-07
[3], 303.15 K, x1 = 0.3088 | – | 5.69e-07
[3], 303.15 K, x1 = 0.3502 | – | 6.04e-07
[3], 303.15 K, x1 = 0.3916 | – | 6.3e-07
[3], 303.15 K, x1 = 0.453 | – | 6.49e-07
[3], 303.15 K, x1 = 0.5059 | – | 6.51e-07
[3], 303.15 K, x1 = 0.5463 | – | 6.4e-07
[3], 303.15 K, x1 = 0.6022 | – | 6.17e-07
[3], 303.15 K, x1 = 0.6588 | – | 5.71e-07
[3], 303.15 K, x1 = 0.698 | – | 5.37e-07
[3], 303.15 K, x1 = 0.7527 | – | 4.73e-07
[3], 303.15 K, x1 = 0.7928 | – | 4.2e-07
[3], 303.15 K, x1 = 0.851 | – | 3.21e-07
[3], 303.15 K, x1 = 0.9115 | – | 2.06e-07
[3], 303.15 K, x1 = 0.942 | – | 1.4e-07
[3], 318.15 K, x1 = 0.1079 | – | 2.35e-07
[3], 318.15 K, x1 = 0.1326 | – | 2.91e-07
[3], 318.15 K, x1 = 0.1749 | – | 3.68e-07
[3], 318.15 K, x1 = 0.2201 | – | 4.34e-07
[3], 318.15 K, x1 = 0.2751 | – | 5.03e-07
[3], 318.15 K, x1 = 0.3257 | – | 5.54e-07
[3], 318.15 K, x1 = 0.3949 | – | 6.05e-07
[3], 318.15 K, x1 = 0.4521 | – | 6.3e-07
[3], 318.15 K, x1 = 0.4783 | – | 6.36e-07
[3], 318.15 K, x1 = 0.55 | – | 6.31e-07
[3], 318.15 K, x1 = 0.5996 | – | 6.16e-07
[3], 318.15 K, x1 = 0.6675 | – | 5.74e-07
[3], 318.15 K, x1 = 0.7318 | – | 5.24e-07
[3], 318.15 K, x1 = 0.8163 | – | 4.04e-07
[3], 318.15 K, x1 = 0.8728 | – | 3.17e-07
[4], 299.15 K, x1 = 0.0487 | 0.0783 | –
[4], 299.15 K, x1 = 0.1046 | 0.158 | –
[4], 299.15 K, x1 = 0.1632 | 0.234 | –
[4], 299.15 K, x1 = 0.2233 | 0.299 | –
[4], 299.15 K, x1 = 0.283 | 0.351 | –
[4], 299.15 K, x1 = 0.3383 | 0.389 | –
[4], 299.15 K, x1 = 0.3915 | 0.415 | –
[4], 299.15 K, x1 = 0.4395 | 0.431 | –
[4], 299.15 K, x1 = 0.4853 | 0.439 | –
[4], 299.15 K, x1 = 0.5221 | 0.441 | –
[4], 299.15 K, x1 = 0.5268 | 0.441 | –
[4], 299.15 K, x1 = 0.5545 | 0.439 | –
[4], 299.15 K, x1 = 0.5745 | 0.437 | –
[4], 299.15 K, x1 = 0.636 | 0.417 | –
[4], 299.15 K, x1 = 0.7063 | 0.379 | –
[4], 299.15 K, x1 = 0.778 | 0.323 | –
[4], 299.15 K, x1 = 0.8552 | 0.24 | –
[4], 299.15 K, x1 = 0.9325 | 0.129 | –
[4], 318.15 K, x1 = 0.0458 | 0.0698 | –
[4], 318.15 K, x1 = 0.1 | 0.141 | –
[4], 318.15 K, x1 = 0.1556 | 0.207 | –
[4], 318.15 K, x1 = 0.2136 | 0.274 | –
[4], 318.15 K, x1 = 0.2734 | 0.329 | –
[4], 318.15 K, x1 = 0.3313 | 0.37 | –
[4], 318.15 K, x1 = 0.3854 | 0.401 | –
[4], 318.15 K, x1 = 0.4221 | 0.415 | –
[4], 318.15 K, x1 = 0.4655 | 0.427 | –
[4], 318.15 K, x1 = 0.5127 | 0.431 | –
[4], 318.15 K, x1 = 0.5632 | 0.429 | –
[4], 318.15 K, x1 = 0.6217 | 0.416 | –
[4], 318.15 K, x1 = 0.6845 | 0.388 | –
[4], 318.15 K, x1 = 0.7505 | 0.344 | –
[4], 318.15 K, x1 = 0.8187 | 0.28 | –
[4], 318.15 K, x1 = 0.884 | 0.195 | –
[4], 318.15 K, x1 = 0.9472 | 0.102 | –
